Values after ≈ are worked out from the molar mass of the structure shown.
Experiments:
Escherichia coli [1] = experiment: Minimum inhibitory concentration against Escherichia coli 055 was determined by agar dilution method using Mueller-Hinton; type: functional
Escherichia coli [2] = experiment: Minimum inhibitory concentration against Escherichia coli 1507E was determined by agar dilution method using Mueller-Hinton; type: functional
Klebsiella aerogenes = experiment: Minimum inhibitory concentration against Klebsiella aerogenes 1522E was determined by agar dilution method using Mueller-Hinton; type: functional
Pseudomonas aeruginosa [3] = experiment: Minimum inhibitory concentration against Pseudomonas aeruginosa 1592E was determined by agar dilution method using Mueller-Hinton; type: functional
Pseudomonas aeruginosa [4] = experiment: Minimum inhibitory concentration against Pseudomonas aeruginosa 1771M was determined by agar dilution method using Mueller-Hinton; type: functional
Pseudomonas aeruginosa [5] = experiment: Minimum inhibitory concentration against Pseudomonas aeruginosa 9027 was determined by agar dilution method using Mueller-Hinton; type: functional
Salmonella typhimurium = experiment: Minimum inhibitory concentration against Salmonella Typhimurium was determined by agar dilution method using Mueller-Hinton; type: functional, Salmonella enterica subsp. enterica serovar Typhimurium; conditions: Salmonella enterica
Streptococcus pyogenes = experiment: Minimum inhibitory concentration against Streptococcus pyogenes 308A was determined by agar dilution method using Mueller-Hinton; type: functional
Staphylococcus aureus [6] = experiment: Minimum inhibitory concentration against Staphylococcus aureus 285 was determined by agar dilution method using Mueller-Hinton; type: functional
Staphylococcus aureus [7] = experiment: Minimum inhibitory concentration against Staphylococcus aureus 503 was determined by agar dilution method using Mueller-Hinton; type: functional
Staphylococcus aureus [8] = experiment: Minimum inhibitory concentration against Staphylococcus aureus SG 511 was determined by agar dilution method using Mueller-Hinton; type: functional
Enterobacter cloacae = experiment: Minimum inhibitory concentration against Enterobacter cloacae 1321E was determined by agar dilution method using Mueller-Hinton; type: functional
[9] = target: Dipeptidase 1 (Sus scrofa) (UniProt P22412); experiment: Relative half life of hydrolysis to meropenem by partially purified porcine renal DHP-I was determined
Sequence of Dipeptidase 1 (Sus scrofa) (P22412 whole entry, looked up): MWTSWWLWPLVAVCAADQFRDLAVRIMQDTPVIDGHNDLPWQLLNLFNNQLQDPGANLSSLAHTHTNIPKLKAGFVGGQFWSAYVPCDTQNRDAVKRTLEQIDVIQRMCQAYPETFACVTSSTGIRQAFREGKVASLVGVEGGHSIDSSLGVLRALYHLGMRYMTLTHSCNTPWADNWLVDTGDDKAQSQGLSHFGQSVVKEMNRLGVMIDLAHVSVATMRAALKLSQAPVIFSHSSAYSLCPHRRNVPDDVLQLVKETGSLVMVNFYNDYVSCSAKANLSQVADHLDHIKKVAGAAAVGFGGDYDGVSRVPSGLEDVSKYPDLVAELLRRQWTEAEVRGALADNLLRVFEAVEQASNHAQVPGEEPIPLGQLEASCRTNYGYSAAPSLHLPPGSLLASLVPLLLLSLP

[10] = target: Dipeptidase 1 (Sus scrofa) (UniProt P22412); experiment: Stability to porcine renal DHP-I was determined

SMILES | MIC (Escherichia coli [1]) | MIC (Escherichia coli [2]) | MIC (Klebsiella aerogenes) | MIC (Pseudomonas aeruginosa [3]) | MIC (Pseudomonas aeruginosa [4]) | MIC (Pseudomonas aeruginosa [5]) | MIC (Salmonella typhimurium) | MIC (Streptococcus pyogenes) | MIC (Staphylococcus aureus [6]) | MIC (Staphylococcus aureus [7]) | MIC (Staphylococcus aureus [8]) | MIC (Enterobacter cloacae) | Relativity [9] | Activity [10]
C[C@@H](O)[C@H]1C(=O)N2C(C(=O)O)=C(S[C@@H]3CN[C@H](/C=C/c4ccno4)C3)[C@H](C)[C@H]12 | 0.025 µg/mL (≈ 0.0617 µM) | 0.025 µg/mL (≈ 0.0617 µM) | 0.049 µg/mL (≈ 0.121 µM) | 0.195 µg/mL (≈ 0.481 µM) | 0.195 µg/mL (≈ 0.481 µM) | 0.195 µg/mL (≈ 0.481 µM) | 0.049 µg/mL (≈ 0.121 µM) | 0.004 µg/mL (≈ 0.00986 µM) | 0.025 µg/mL (≈ 0.0617 µM) | 0.013 µg/mL (≈ 0.0321 µM) | 0.025 µg/mL (≈ 0.0617 µM) | 0.025 µg/mL (≈ 0.0617 µM) | 1.95 | –
C[C@@H](O)[C@H]1C(=O)N2C(C(=O)O)=C(S[C@@H]3CN[C@H](/C=C\c4cnoc4)C3)[C@H](C)[C@H]12 | 0.391 µg/mL (≈ 0.964 µM) | 1.56 µg/mL (≈ 3.85 µM) | 3.12 µg/mL (≈ 7.71 µM) | 25 µg/mL (≈ 61.7 µM) | 3.12 µg/mL (≈ 7.71 µM) | 25 µg/mL (≈ 61.7 µM) | 0.391 µg/mL (≈ 0.964 µM) | < 0.002 µg/mL | 0.025 µg/mL (≈ 0.0617 µM) | 0.013 µg/mL (≈ 0.0321 µM) | 0.013 µg/mL (≈ 0.0321 µM) | 1.56 µg/mL (≈ 3.85 µM) | 1.84 | –
C[C@@H](O)[C@H]1C(=O)N2C(C(=O)O)=C(S[C@@H]3CN[C@H](/C=C/c4ccon4)C3)[C@H](C)[C@H]12 | 0.098 µg/mL (≈ 0.242 µM) | 0.098 µg/mL (≈ 0.242 µM) | 0.098 µg/mL (≈ 0.242 µM) | 3.12 µg/mL (≈ 7.71 µM) | 0.781 µg/mL (≈ 1.93 µM) | 3.12 µg/mL (≈ 7.71 µM) | 0.098 µg/mL (≈ 0.242 µM) | 0.025 µg/mL (≈ 0.0617 µM) | 0.195 µg/mL (≈ 0.481 µM) | 0.098 µg/mL (≈ 0.242 µM) | 0.195 µg/mL (≈ 0.481 µM) | 0.049 µg/mL (≈ 0.121 µM) | 2.33 | –
C[C@@H](O)[C@H]1C(=O)N2C(C(=O)O)=C(S[C@@H]3CN[C@H](C(=O)N(C)C)C3)[C@H](C)[C@H]12 [MEROPENEM] | 0.025 µg/mL (≈ 0.0652 µM) | 0.025 µg/mL (≈ 0.0652 µM) | 0.049 µg/mL (≈ 0.128 µM) | 0.195 µg/mL (≈ 0.509 µM) | 0.049 µg/mL (≈ 0.128 µM) | 0.195 µg/mL (≈ 0.509 µM) | 0.049 µg/mL (≈ 0.128 µM) | 0.013 µg/mL (≈ 0.0339 µM) | 0.195 µg/mL (≈ 0.509 µM) | 0.098 µg/mL (≈ 0.256 µM) | 0.195 µg/mL (≈ 0.509 µM) | 0.025 µg/mL (≈ 0.0652 µM) | – | 1
C[C@@H](O)[C@H]1C(=O)N2C(C(=O)O)=C(SCCNC=N)C[C@H]12 [IMIPENEM ANHYDROUS] | 0.098 µg/mL (≈ 0.327 µM) | 0.195 µg/mL (≈ 0.651 µM) | 0.391 µg/mL (≈ 1.31 µM) | 1.56 µg/mL (≈ 5.22 µM) | 0.195 µg/mL (≈ 0.651 µM) | 0.781 µg/mL (≈ 2.61 µM) | 0.781 µg/mL (≈ 2.61 µM) | 0.007 µg/mL (≈ 0.0234 µM) | 0.025 µg/mL (≈ 0.0835 µM) | 0.013 µg/mL (≈ 0.0434 µM) | 0.025 µg/mL (≈ 0.0835 µM) | 0.195 µg/mL (≈ 0.651 µM) | 0.19 | –

More lines, main results first:

MIC (Escherichia coli [1]) | MIC (Escherichia coli [2]) | MIC (Klebsiella aerogenes) | MIC (Pseudomonas aeruginosa [3]) | MIC (Pseudomonas aeruginosa [4]) | MIC (Pseudomonas aeruginosa [5]) | MIC (Salmonella typhimurium) | MIC (Streptococcus pyogenes) | MIC (Staphylococcus aureus [6]) | MIC (Staphylococcus aureus [7]) | MIC (Staphylococcus aureus [8]) | MIC (Enterobacter cloacae) | Relativity [9] | SMILES | Activity [10]
0.049 µg/mL (≈ 0.113 µM) | 0.049 µg/mL (≈ 0.113 µM) | 0.098 µg/mL (≈ 0.225 µM) | 3.12 µg/mL (≈ 7.18 µM) | 1.56 µg/mL (≈ 3.59 µM) | 3.12 µg/mL (≈ 7.18 µM) | 0.098 µg/mL (≈ 0.225 µM) | 0.013 µg/mL (≈ 0.0299 µM) | 0.049 µg/mL (≈ 0.113 µM) | 0.049 µg/mL (≈ 0.113 µM) | 0.049 µg/mL (≈ 0.113 µM) | 0.049 µg/mL (≈ 0.113 µM) | 1.59 | C[C@@H](O)[C@H]1C(=O)N2C(C(=O)O)=C(S[C@@H]3CN[C@H](/C=C\c4cc(CO)no4)C3)[C@H](C)[C@H]12 | –
0.098 µg/mL (≈ 0.225 µM) | 0.391 µg/mL (≈ 0.898 µM) | 0.391 µg/mL (≈ 0.898 µM) | 12.5 µg/mL (≈ 28.7 µM) | 6.25 µg/mL (≈ 14.4 µM) | 12.5 µg/mL (≈ 28.7 µM) | 0.195 µg/mL (≈ 0.448 µM) | 0.007 µg/mL (≈ 0.0161 µM) | 0.025 µg/mL (≈ 0.0574 µM) | 0.049 µg/mL (≈ 0.113 µM) | 0.049 µg/mL (≈ 0.113 µM) | 0.195 µg/mL (≈ 0.448 µM) | 2.14 | COc1cc(/C=C/[C@@H]2C[C@H](SC3=C(C(=O)O)N4C(=O)[C@H]([C@@H](C)O)[C@H]4[C@H]3C)CN2)on1 | –
0.025 µg/mL (≈ 0.0568 µM) | 0.025 µg/mL (≈ 0.0568 µM) | 0.025 µg/mL (≈ 0.0568 µM) | 0.781 µg/mL (≈ 1.78 µM) | 0.195 µg/mL (≈ 0.443 µM) | 0.781 µg/mL (≈ 1.78 µM) | 0.025 µg/mL (≈ 0.0568 µM) | 0.004 µg/mL (≈ 0.00909 µM) | 0.025 µg/mL (≈ 0.0568 µM) | 0.013 µg/mL (≈ 0.0296 µM) | 0.013 µg/mL (≈ 0.0296 µM) | 0.013 µg/mL (≈ 0.0296 µM) | 1.33 | C[C@@H](O)[C@H]1C(=O)N2C(C(=O)O)=C(S[C@@H]3CN[C@H](/C=C/c4cc(Cl)no4)C3)[C@H](C)[C@H]12 | –
0.025 µg/mL (≈ 0.0574 µM) | 0.025 µg/mL (≈ 0.0574 µM) | 0.049 µg/mL (≈ 0.113 µM) | 0.195 µg/mL (≈ 0.448 µM) | 0.098 µg/mL (≈ 0.225 µM) | 0.195 µg/mL (≈ 0.448 µM) | 0.049 µg/mL (≈ 0.113 µM) | 0.007 µg/mL (≈ 0.0161 µM) | 0.025 µg/mL (≈ 0.0574 µM) | 0.025 µg/mL (≈ 0.0574 µM) | 0.025 µg/mL (≈ 0.0574 µM) | 0.025 µg/mL (≈ 0.0574 µM) | 2.01 | C[C@@H](O)[C@H]1C(=O)N2C(C(=O)O)=C(S[C@@H]3CN[C@H](/C=C/c4cc(CO)no4)C3)[C@H](C)[C@H]12 | –
0.025 µg/mL (≈ 0.0539 µM) | 0.025 µg/mL (≈ 0.0539 µM) | 0.049 µg/mL (≈ 0.106 µM) | 0.195 µg/mL (≈ 0.421 µM) | 0.098 µg/mL (≈ 0.211 µM) | 0.098 µg/mL (≈ 0.211 µM) | 0.025 µg/mL (≈ 0.0539 µM) | 0.007 µg/mL (≈ 0.0151 µM) | 0.049 µg/mL (≈ 0.106 µM) | 0.025 µg/mL (≈ 0.0539 µM) | 0.049 µg/mL (≈ 0.106 µM) | 0.025 µg/mL (≈ 0.0539 µM) | 2.68 | COC(=O)c1cc(/C=C/[C@@H]2C[C@H](SC3=C(C(=O)O)N4C(=O)[C@H]([C@@H](C)O)[C@H]4[C@H]3C)CN2)on1 | –
0.025 µg/mL (≈ 0.0539 µM) | 0.025 µg/mL (≈ 0.0539 µM) | 0.049 µg/mL (≈ 0.106 µM) | 0.195 µg/mL (≈ 0.421 µM) | 0.195 µg/mL (≈ 0.421 µM) | 0.098 µg/mL (≈ 0.211 µM) | 0.025 µg/mL (≈ 0.0539 µM) | 0.007 µg/mL (≈ 0.0151 µM) | 0.049 µg/mL (≈ 0.106 µM) | 0.025 µg/mL (≈ 0.0539 µM) | 0.049 µg/mL (≈ 0.106 µM) | 0.025 µg/mL (≈ 0.0539 µM) | 1.35 | COC(=O)c1cc(/C=C\[C@@H]2C[C@H](SC3=C(C(=O)O)N4C(=O)[C@H]([C@@H](C)O)[C@H]4[C@H]3C)CN2)on1 | –

— ChEMBL document CHEMBL1133072, “Synthesis and biological activity of 1beta-methyl-2-[5'-isoxazoloethenylpyrrolidin-3'-ylthio]carbapenems” (2000)
